Measurements taken from US5639783A, “Ketone derivatives” (Mitsubishi Chemical Corporation, priority 1991, dated 1997).
Where two headings read alike, the source gives them in different places.

Assays:
Format in all cases: biochemical
papain = target: T1, papain (Carica papaya, UniProt P00784); assay: Thiol protease inhibitory activity, papain (P-3125, Sigma)
T1 sequence (P00784 134-345): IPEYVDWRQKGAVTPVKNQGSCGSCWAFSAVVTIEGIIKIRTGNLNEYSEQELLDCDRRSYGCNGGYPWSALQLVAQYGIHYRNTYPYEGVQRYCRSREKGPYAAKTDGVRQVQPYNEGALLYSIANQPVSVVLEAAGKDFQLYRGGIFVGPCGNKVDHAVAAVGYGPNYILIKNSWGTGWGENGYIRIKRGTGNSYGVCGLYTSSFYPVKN
Procedure: (§1) Inhibitory activity against papain (P-3125, Sigma) and cathepsin B (C-6286, Sigma) was assayed according to the method described in a literature [Biochemical Journal, 201, 189 (1982)]. Cathepsin L was purified from rat kidney according to the method in a literature [Journal of Biochemistry, 100, 35 (1986)], and the inhibitory activity against it was assayed in the same manner as described in the above literature for cathepsin B. Furthermore, m-calpain was purified from rat brain according to a known method [Journal of Biological Chemistry, 254, p. 3210 (1984)] and the inhibitory activity against it was assayed by a method described in a literature [Journal of Biological Chemistry, 259, 12489 (1984)]. It is evident from Tables 3 and 4 that the compounds of the present invention have a potent inhibitory activity against thiol proteases such as papain, cathepsin B, cathepsin L or m-calpain.

cathepsin B = target: T2, cathepsin B (Bos taurus, UniProt P07688); assay: Thiol protease inhibitory activity, cathepsin B (C-6286, Sigma); conditions: Table 3
T2 construct: purchased Sigma C-6286
Procedure: as §1

cathepsin L = target: T3, cathepsin L (Rattus norvegicus, UniProt P07154); assay: Thiol protease inhibitory activity, cathepsin L purified from rat kidney; conditions: Table 3
T3 construct: Cathepsin L was purified from rat kidney; from tissue; host or cells: rat kidney
T3 sequence (P07154 114-334): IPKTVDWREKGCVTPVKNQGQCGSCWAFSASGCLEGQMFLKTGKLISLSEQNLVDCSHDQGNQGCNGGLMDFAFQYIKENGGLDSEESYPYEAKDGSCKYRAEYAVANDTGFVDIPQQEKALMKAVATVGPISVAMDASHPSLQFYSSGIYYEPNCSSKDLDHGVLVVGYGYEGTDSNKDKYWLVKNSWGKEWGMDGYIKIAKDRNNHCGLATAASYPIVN
Procedure: as §1

m-calpain = target: T4, m-calpain (Rattus norvegicus, UniProt Q07009); assay: Thiol protease inhibitory activity, m-calpain purified from rat brain
T4 construct: m-calpain was purified from rat brain; from tissue; host or cells: rat brain
T4 sequence (Q07009 20-700 limits assumed): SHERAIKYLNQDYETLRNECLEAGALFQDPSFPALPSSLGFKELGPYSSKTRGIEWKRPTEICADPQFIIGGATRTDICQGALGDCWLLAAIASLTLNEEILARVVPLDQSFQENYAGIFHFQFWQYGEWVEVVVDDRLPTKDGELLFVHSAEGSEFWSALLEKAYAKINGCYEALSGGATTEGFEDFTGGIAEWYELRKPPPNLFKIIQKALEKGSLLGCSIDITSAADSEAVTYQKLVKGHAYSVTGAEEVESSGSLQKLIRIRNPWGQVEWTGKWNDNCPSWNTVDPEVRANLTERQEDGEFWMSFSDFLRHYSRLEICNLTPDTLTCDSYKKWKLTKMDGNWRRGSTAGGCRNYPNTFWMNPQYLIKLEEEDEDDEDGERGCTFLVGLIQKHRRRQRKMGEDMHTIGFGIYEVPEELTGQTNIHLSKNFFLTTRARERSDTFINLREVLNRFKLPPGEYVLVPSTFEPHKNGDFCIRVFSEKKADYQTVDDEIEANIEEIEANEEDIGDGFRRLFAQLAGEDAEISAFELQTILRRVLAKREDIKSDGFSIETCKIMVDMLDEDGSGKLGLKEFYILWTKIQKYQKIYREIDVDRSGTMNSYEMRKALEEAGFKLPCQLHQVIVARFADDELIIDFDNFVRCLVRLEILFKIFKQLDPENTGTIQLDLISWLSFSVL
T4 sequence (Q64537 1-270 partner): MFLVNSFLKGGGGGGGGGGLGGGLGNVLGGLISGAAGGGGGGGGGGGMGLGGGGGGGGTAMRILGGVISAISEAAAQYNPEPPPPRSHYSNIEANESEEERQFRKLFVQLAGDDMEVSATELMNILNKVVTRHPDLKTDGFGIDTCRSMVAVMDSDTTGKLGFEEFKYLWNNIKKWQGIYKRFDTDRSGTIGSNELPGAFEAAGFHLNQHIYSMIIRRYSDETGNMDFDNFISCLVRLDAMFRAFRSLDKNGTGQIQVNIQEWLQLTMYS
Procedure: as §1

| Compound | IC50 (papain) | IC50 (cathepsin B) | IC50 (cathepsin L) | IC50 (m-calpain; Table 3) | IC50 (papain; Table 3, read-out: IC50 papain) | IC50 (m-calpain; Table 4) |
| --- | --- | --- | --- | --- | --- | --- |
| CCCC[C@H](NC(=O)[C@H](CC(C)C)NC(=O)COc1ccccc1)C(=O)C[S+]([O-])Cc1ccco1 (some centres unmarked) [4 (No. 83), (s)-1-furfurylsulfinyl-3-((s)-4-methyl-2-phenoxyacetylaminovalerylamino)-2-heptanone] | 210 nM | 44 nM | 45 nM | 12000 nM |  |  |
| CCCC[C@H](NC(=O)[C@H](CC(C)C)NC(=O)OCC1CCCCC1)C(=O)CSCc1ccco1 [21 (No. 46), (s)-3-((s)-2-cyclohexylmethoxycarbonylamino-4-methylvalerylamino)-1-furfurylthio-2-heptanone] |  | 140 nM |  | 4700 nM | 130 nM |  |
| CCCC[C@H](NC(=O)[C@H](CC(C)C)NC(=O)OCc1ccccc1)C(=O)CSCc1ccco1 [22 (No. 48), (s)-3-((s)-2-benzyloxycarbonylamino-4-methylvalerylamino)-1-furfurylthio-2-heptanone] |  | 980 nM | 1300 nM | 11000 nM | 1100 nM |  |
| CCCC[C@H](NC(=O)[C@H](CC(C)C)NC(=O)OCc1ccccc1F)C(=O)CSCc1ccco1 [23 (No. 49), (s)-3-[(s)-2-(2-fluorobenzyloxycarbonylamino)-4-methylvalerylamino]-1-furfurylthio-2-heptanone] |  | 3700 nM | 1100 nM | 6400 nM | 22000 nM |  |
| CCCC[C@H](NC(=O)[C@H](CC(C)C)NC(=O)OCc1ccccn1)C(=O)CSCc1ccco1 [28 (No. 59), (s)-1-furfurylthio-3-[(s)-4-methyl-2-(2-pyridylmethoxycarbonylamino)valerylamino]-2-heptanone] |  | 2100 nM | 15000 nM | 11000 nM | 3400 nM |  |
| CCCC[C@H](NC(=O)[C@H](CC(C)C)NC(=O)Cc1ccccc1)C(=O)CSCc1ccco1 [30 (No. 66), (s)-1-furfurylthio-3-((s)-4-methyl-2-phenylacetylaminovalerylamino)-2-heptanone] | 150 nM | 590 nM |  | 5100 nM |  |  |
| CCCC[C@H](NC(=O)[C@H](CC(C)C)NC(=O)Cc1ccc(F)cc1)C(=O)CSCc1ccco1 [31 (No. 69), (s)-3-[(s)-2-(4-fluorophenylacetylamino)-4-methylvalerylamino]-1-furfurylthio-2-heptanone] |  | 550 nM | 630 nM | 22000 nM | 1400 nM |  |
| CCCC[C@H](NC(=O)[C@H](CC(C)C)NC(=O)Cc1cccc2ccccc12)C(=O)CSCc1ccco1 [33 (No. 76), (s)-1-furfurylthio-3-[(s)-4-methyl-2-(1-naphtylacetylamino)valerylamino]-2-heptanone] |  | 1200 nM | 270 nM | 6400 nM | 700 nM |  |
| CCCC[C@H](NC(=O)[C@H](CC(C)C)NC(=O)Cc1csc2ccccc12)C(=O)CSCc1ccco1 [34 (No. 79), (s)-3-[(s)-2-(3-benzothienylacetylamino)-4-methylvalerylamino]-1-furfurylthio-2-heptanone] |  | 410 nM | 510 nM | 5500 nM | 360 nM |  |
| CCCC[C@H](NC(=O)[C@H](CC(C)C)NC(=O)COC1CCCCC1)C(=O)CSCc1ccco1 [35 (No. 81), (s)-3-((s)-2-cyclohexyloxyacetylamino-4-methylvalerylamino)-1-furfurylthio-2-heptanone] |  | 700 nM | 1100 nM | 8600 nM | 210 nM |  |
| CCCC[C@H](NC(=O)[C@H](CC(C)C)NC(=O)COc1ccccc1F)C(=O)CSCc1ccco1 [36 (No. 85), (s)-3-[(s)-2-(2-fluorophenoxyacetylamino)-4-methylvalerylamino]-1-furfurylthio-2-heptanone] |  | 4900 nM | 1300 nM | 25000 nM | 26000 nM |  |
| CCCC[C@H](NC(=O)[C@H](CC(C)C)NC(=O)COc1cccc(F)c1)C(=O)CSCc1ccco1 [37 (No. 86), (s)-3-[(s)-2-(3-fluorophenoxyacetylamino)-4-methylvalerylamino]-1-furfurylthio-2-heptanone] |  | 700 nM | 450 nM | 15000 nM | 1300 nM |  |
| CCCC[C@H](NC(=O)[C@H](CC(C)C)NC(=O)COc1ccc(F)cc1)C(=O)CSCc1ccco1 [38 (No. 87), (s)-3-[(s)-2-(4-fluorophenoxyacetylamino)-4-methylvalerylamino]-1-furfurylthio-2-heptanone] |  | 620 nM | 720 nM | 5000 nM | 420 nM |  |
| CCCC[C@H](NC(=O)[C@H](CC(C)C)NC(=O)COc1ccccc1Cl)C(=O)CSCc1ccco1 [39 (No. 88), (s)-3-[(s)-2-(2-chlorophenoxyacetylamino)-4-methylvalerylamino]-1-furfurylthio-2-heptanone] |  | 290 nM |  | 2200 nM | 250 nM |  |
| CCCC[C@H](NC(=O)[C@H](CC(C)C)NC(=O)COc1ccc(Cl)cc1)C(=O)CSCc1ccco1 [40 (No. 90), (s)-3-[(s)-2-(4-chlorophenoxyacetylamino)-4-methylvalerylamino]-1-furfurylthio-2-heptanone] |  | 270 nM | 850 nM | 8400 nM | 2100 nM |  |
| CCCC[C@H](NC(=O)[C@H](CC(C)C)NC(=O)COc1cccc2ccccc12)C(=O)CSCc1ccco1 [52 (No. 114), (s)-1-furfurylthio-3-[-(s)-4-methyl-2-(1-naphtoxyacetylamino)valerylamino]-2-heptanone] |  | 820 nM |  | 2500 nM | 340 nM |  |
| CCCC[C@H](NC(=O)[C@H](CC(C)C)NC(=O)OCc1ccccc1)C(=O)CSCc1cccnc1 [106 (No. 228), (s)-3-((s)-2-benzyloxycarbonylamino-4-methylvalerylamino)-1-(3-pyridylmethylthio)-2-heptanone] |  |  |  |  |  | 3100 nM |
| CCCC[C@H](NC(=O)[C@H](CC(C)C)NC(=O)OCc1ccccc1)C(=O)CSCc1ccncc1 [107 (No. 230), (s)-3-((s)-2-benzyloxycarbonylamino-4-methylvalerylamino)-1-(4-pyridylmethylthio)-2-heptanone] |  |  |  |  |  | 4200 nM |
| CC(C)C[C@H](NC(=O)OCc1ccccc1)C(=O)N[C@@H](Cc1ccccc1)C(=O)CSCc1ccco1 [139 (No. 297), (s)-3-((s)-2-benzyloxycarbonylamino-4-methylvalerylamino)-1-furfurylthio-4-phenyl-2-butanone] |  |  |  |  |  | 4500 nM |
| CC(C)C[C@H](NC(=O)Cc1csc2ccccc12)C(=O)N[C@@H](Cc1ccccc1)C(=O)CSCc1ccco1 [162 (No. 345), (s)-3-[(s)-2-(3-benzothienylacetylamino)-4-methylvalerylamino]-1-furfurylthio-4-phenyl-2-butanone] |  | 5300 nM |  | 3700 nM | 950 nM |  |
| CC(C)C[C@H](NC(=O)OCc1ccccc1)C(=O)N[C@@H](Cc1ccccc1)C(=O)CSCc1ccc(Cl)s1 [183 (No. 423), (s)-3-((s)-2-benzyloxycarbonylamino-4-methylvalerylamino)-1-(5-chloro-2-thienylmethylthio)-4-phenyl-2-butanone] |  |  |  |  |  | 9600 nM |
| CC(C)C[C@H](NC(=O)OCc1ccccc1)C(=O)N1CCC[C@H]1C(=O)CSCc1ccco1 [Ref. Ex. No. 3, (s)-1-((s)-2-benzyloxycarbonylamino-4-methylvaleryl)-2-furfurylthioacetylpyrrolidine, reference compound] |  |  |  |  |  | > 100000 nM |
